A short description of assay [1]: Cytotoxicity against mouse EAC. To be noted: Ehrlich. It counts as functional, cell-based.
Assay [2] in a line: Cytotoxicity against sea urchin egg. Format: functional, Strongylocentrotus intermedius.

A word on the IC50: it is the concentration at which inhibition is half-maximal. The low end stands for greater potency in that assay, the high end for weaker potency in that assay.

As for `C=C[C@]1(C)C=C2C(=O)C[C@@H]3[C@](C)(CCC(=O)[C@]3(C)CO[C@@H]3O[C@H](CO)[C@@H](O)[C@@H](O)[C@@H]3O)[C@H]2CC1`, the IC50 amounted to 25 µM in assay [1] and 100 µM in assay [2].
In the case of `C=C[C@]1(C)C=C2[C@H](O)C[C@@H]3[C@](C)(CCC(=O)[C@]3(C)CO[C@@H]3O[C@H](CO)[C@@H](O)[C@@H](O)[C@@H]3O)[C@H]2CC1`, the values for the half-maximal inhibitory concentration (IC50) in assay [1] and in assay [2] were 25 µM and 100 µM, respectively.
`C=C[C@@]1(C)CCC2=C(C1)C(=O)C[C@H]1[C@@](C)(CO[C@@H]3O[C@H](CO)[C@@H](O)[C@@H](O)[C@@H]3O)C(=O)CC[C@]21C`: the IC50 in assay [1] came to 25 µM; in assay [2], 100 µM.
Turning to `C=C[C@@]1(C)CC[C@H]2C(=CC[C@@H]3[C@]2(C)C[C@@H](O)[C@H](O)[C@]3(C)CO[C@@H]2O[C@H](CO[C@H]3O[C@H](CO)[C@@H](O)[C@H](O)[C@H]3O)[C@@H](O)[C@@H](O)[C@@H]2O)C1` [VIRESCENOSIDE R], the IC50 in assay [1] stood at 25 µM; in assay [2] it was 100 µM.

The values above are taken from ChEMBL document CHEMBL1151239, “New glycosides of the fungus Acremonium striatisporum isolated from a sea cucumber” (J Nat Prod, 2004).
